From the supplement of paper PMC10307832

Experiments:
Test in all cases: relative viability (nuclei count vs DMSO), 5 days (fraction); higher = more cells survive
NCI-H23 = system: NCI-H23
Summary of the method: (§1)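 Lung cancer cell lines in 1536-well plates were dosed by pin tool the day after seeding, either with one drug alone or with a fixed anchor-drug dose plus five library-drug doses (not always all listed) in √10 steps. After 5 days, cells were fixed and their nuclei stained in one step (final 0.05% Triton X-100, 1% formaldehyde, 1 ug/ml Hoechst), then counted on 4× images. Relative viability is the nuclei count in treated wells divided by that in vehicle wells. Values are medians of duplicate plates.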

NCI-H322M = system: NCI-H322M
Summary of the method: as §1

EBC-1 = system: EBC-1
Summary of the method: as §1

Calu-6 = system: Calu-6
Summary of the method: as §1

NCI-H596 = system: NCI-H596
Summary of the method: as §1

NCI-H1355 = system: NCI-H1355
Summary of the method: as §1

A549 = system: A549
Summary of the method: as §1

NCI-H1993 = system: NCI-H1993
Summary of the method: as §1

NCI-H1299 = system: NCI-H1299
Summary of the method: as §1

IA-LM = system: IA-LM
Summary of the method: as §1

UMC-11 = system: UMC-11
Summary of the method: as §1

NCI-H1703 = system: NCI-H1703
Summary of the method: as §1

LCLC-97TM1 = system: LCLC-97TM1
Summary of the method: as §1

Which results are given for `COc1cc2nccc(Oc3ccc(NC(=O)Nc4cc(C)on4)c(Cl)c3)c2cc1OC` [Tivozanib] + Cc1nc(NC(=O)N2CCC[C@H]2C(N)=O)sc1-c1ccnc(C(C)(C)C(F)(F)F)c1 [Alpelisib] (partner 2 µM)?
relative viability (NCI-H23; first compound 0.005 µM): 0.735; relative viability (NCI-H23; first compound 0.01581 µM): 0.651; relative viability (NCI-H23; first compound 0.05 µM): 0.615; relative viability (NCI-H23; first compound 0.1581 µM): 0.497; relative viability (NCI-H23; first compound 0.5 µM): 0.561; relative viability (NCI-H322M; first compound 0.005 µM): 0.743; relative viability (NCI-H322M; first compound 0.01581 µM): 0.764; relative viability (NCI-H322M; first compound 0.05 µM): 0.767; relative viability (NCI-H322M; first compound 0.1581 µM): 0.756; relative viability (NCI-H322M; first compound 0.5 µM): 0.84; relative viability (EBC-1; first compound 0.005 µM): 0.79; relative viability (EBC-1; first compound 0.01581 µM): 0.924; relative viability (EBC-1; first compound 0.05 µM): 0.811; relative viability (EBC-1; first compound 0.1581 µM): 0.59; relative viability (EBC-1; first compound 0.5 µM): 0.74; relative viability (Calu-6; first compound 0.005 µM): 0.993; relative viability (Calu-6; first compound 0.01581 µM): 0.969; relative viability (Calu-6; first compound 0.05 µM): 0.943; relative viability (Calu-6; first compound 0.1581 µM): 0.863; relative viability (Calu-6; first compound 0.5 µM): 0.874; relative viability (NCI-H596; first compound 0.005 µM): 0.462; relative viability (NCI-H596; first compound 0.01581 µM): 0.464; relative viability (NCI-H596; first compound 0.05 µM): 0.544; relative viability (NCI-H596; first compound 0.1581 µM): 0.47; relative viability (NCI-H596; first compound 0.5 µM): 0.595; relative viability (NCI-H1355; first compound 0.005 µM): 0.766; relative viability (NCI-H1355; first compound 0.01581 µM): 0.693; relative viability (NCI-H1355; first compound 0.05 µM): 0.887; relative viability (NCI-H1355; first compound 0.5 µM): 0.882; relative viability (A549; first compound 0.005 µM): 0.715; relative viability (A549; first compound 0.01581 µM): 0.754; relative viability (A549; first compound 0.05 µM): 0.793; relative viability (A549; first compound 0.1581 µM): 0.612; relative viability (A549; first compound 0.5 µM): 0.774; relative viability (NCI-H1993; first compound 0.005 µM): 0.657; relative viability (NCI-H1993; first compound 0.01581 µM): 0.741; relative viability (NCI-H1993; first compound 0.05 µM): 0.688; relative viability (NCI-H1993; first compound 0.1581 µM): 0.688; relative viability (NCI-H1993; first compound 0.5 µM): 0.695; relative viability (NCI-H1299; first compound 0.005 µM): 1.09; relative viability (NCI-H1299; first compound 0.01581 µM): 1.11; relative viability (NCI-H1299; first compound 0.05 µM): 1.08; relative viability (NCI-H1299; first compound 0.1581 µM): 1.13; relative viability (NCI-H1299; first compound 0.5 µM): 1.06; relative viability (IA-LM; first compound 0.005 µM): 0.659; relative viability (IA-LM; first compound 0.01581 µM): 0.623; relative viability (IA-LM; first compound 0.05 µM): 0.718; relative viability (IA-LM; first compound 0.1581 µM): 0.597; relative viability (IA-LM; first compound 0.5 µM): 0.531; relative viability (UMC-11; first compound 0.005 µM): 1.11; relative viability (UMC-11; first compound 0.01581 µM): 0.846; relative viability (UMC-11; first compound 0.05 µM): 0.964; relative viability (UMC-11; first compound 0.5 µM): 0.959; relative viability (NCI-H1703; first compound 0.005 µM): 0.262; relative viability (NCI-H1703; first compound 0.01581 µM): 0.179; relative viability (NCI-H1703; first compound 0.05 µM): 0.201; relative viability (NCI-H1703; first compound 0.1581 µM): 0.155; relative viability (NCI-H1703; first compound 0.5 µM): 0.203; relative viability (LCLC-97TM1; first compound 0.005 µM): 0.191; relative viability (LCLC-97TM1; first compound 0.01581 µM): 0.206; relative viability (LCLC-97TM1; first compound 0.1581 µM): 0.237; relative viability (LCLC-97TM1; first compound 0.5 µM): 0.247
